Consider two substances from patent US20240374691A1, “GLP-1R AGONISTS FOR USE IN A TREATMENT OF NEUROLOGIAL IMPAIRMENT ASSOCIATED WITH VIRAL INFECTION” (Neuraly, Inc., priority 2021, published 2024).

Where two headings read alike, the source gives them in different places.

The conditions of data set [1]: in vivo; cited from earlier work.
The conditions of data set [2]: in vivo.
The test system of data set [3] is primary microglia. Kind of data set: Pro-inflammatory cytokine production by primary microglia in vitro (ELISA). In kind it is cell-based. The note with it: NLY01 vs PBS. As to the method: Production of pro-inflammatory cytokines is a marker for microglial activation. Chronic microglial activation is pathogenic. […] Cytokine levels were determined using ELISA. Bars indicate mean±s.e.m. (n=3).
A general note: ELISA stands for enzyme-linked immunosorbent assay.

The conditions of data set [4]: in vivo. This is another data set of the same source.
For data set [5], the system named is Tg models of Alzheimer's Disease. In words: Tg models of Alzheimer's Disease (AD). Type of data set: in vivo.
Data set [6] has as its system activated microglia. In words: Microglial activation in vivo after intrastriatal α-synuclein PFF injection. The note with it: 3 mg/kg s.c. twice a week for 5 months, PFF-injected mice, FIGS. 2A-2B. More on the design: species or system C57BL6 mice. The source says: Mice were perfused and brain tissues collected to allow analysis of activated microglia and cytokine levels following treatment.

The half-life is how long it takes for the measured level to halve. For “Albiglutide: dipeptidyl peptidase-4-resistant glucagon-like peptide-1 dimer fused to human albumin”, in data set [1], the half-life result was “four to seven”.
“NLY01: long-acting PEGylated form of exenatide; PEG 50,000 Da site-specifically conjugated to exenatide peptide”: the half-life in data set [2] came to 88 h. Also, the “cytokine production by microglia” value in data set [3] (absence of activation) is listed as “not significantly affected”. For the same substance, the “pro-inflammatory cytokine levels (C1q, IL1α, TNF-α, IL1β)” value in data set [3] (activated microglia, FIGS. 1A-1D) is “substantially reduced”. Moreover, the blood-brain barrier traversal entry in data set [4] is “traverses the blood-brain barrier”. In addition, in data set [5], the “amyloid aggregation and tau formation” value is given as “reduced”; the memory impairment result was “ameliorated”; the “microglia activation and population of reactive astrocytes in the AD brain” value was “significantly inhibited”. Moreover, the “Iba-1+ activated microglia in the brain (Iba-1 intensity, microglia density)” value in data set [6] is recorded as “reduced”.
